# Measurements: US20110092488A1, “Quninoline Methanol Compounds for the Treatment and Prevention of Parasitic Infections” (priority 2005, published 2011)
# Read-outs that look alike come from different tables or passages of the source.
# What was measured:
# [1] = system: P. falciparum TM91C235; test: In vitro antimalarial activity against P. falciparum TM91C235; type: cell-based, Plasmodium falciparum
# Description: (§1) The in vitro activities of AAQMs against P. falciparum strains W2, D6, TM91C235 and TM90C2A were evaluated using the method of Desjardins et al. as modified by Milhous et al. W2 is chloroquine resistant and mefloquine sensitive, D6 is chloroquine sensitive but naturally less susceptible to mefloquine, TM91C235 is resistant to mefloquine, chloroquine and pyrimethamine as is TM90C2A, however this latter parasite is a two pfmdr1 copy strain. We routinely run mefloquine in this screen as a control to ensure assay validity.
# [2] = system: P. falciparum TM90C2A; test: In vitro antimalarial activity against P. falciparum TM90C2A; type: cell-based, Plasmodium falciparum
# Description: as §1
# [3] = system: P. falciparum D6; test: In vitro antimalarial activity against P. falciparum D6; type: cell-based, Plasmodium falciparum
# Description: as §1
# The combined effects of azithromycin (as represented by compound 196 on the horizontal axes of FIG. 4 through 6) and WR074086 (as represented by compound 14885 on vertical axes of FIGS. 4 through 6) against three strains of P. falciparum were investigated using isobologram analysis. First, the IC50s of each compound were determined as described above.
# [4] = system: P. falciparum W2; test: In vitro antimalarial activity against P. falciparum W2; type: cell-based, Plasmodium falciparum
# Description: as §1
# [5] = system: primary rat forebrain neurons; test: Neurocytotoxicity assay (MTT)
# Description: The neurocytotoxicity assay of AAQMs was conducted as per Dow et al.; The antimalarial potential of 4-quinolinecarbinolamines may be limited due to neurotoxicity and cross-resistance in mefloquine-resistant Plasmodium falciparum strains; Chemother. (48) 2624-2632 (2004) and is incorporated herein, by reference. This assay utilizes primary rat forebrain neurons and is a multi-endpoint screen. […] The AAQMs outlined in Table 1 were screened at 10, 100 and 1000 μM in triplicate, and the reduction in viability observed was determined using the 3-(4,5-dimethylthiazol-2-yl)-2,5-diphenyltetrazolium bromide (MTT) assay as per Dow et al., discussed above. Approximate IC50 values were calculated on the basis of the level of inhibition observed at each concentration. Full dose response assays were run for mefloquine and WR069878 with two fold dilutions (n=6 wells per dilution) and 11 dilutions for each drug. IC50s were calculated using Prism. Each time the assay is conducted, 20 μM mefloquine is included, as a control. […] Assays are re-run if the loss of viability induced by mefloquine is <40% or >60%. Neuroprotection experiments with 6,7-dinitroquinoxaline-2,3-dione (DNQX) and magnesium were performed as per Dow et al.; Transcriptional profiling of mefloquine-induced disruption of calcium homeostasis in neurons in vitro; Genomics (86)539-550 (2005), which is incorporated by reference, herein. Neurons were exposed to DNQX (100 μM) or magnesium (12 mM) for 5 min, followed by mefloquine (25 μM) or WR069878 (250 μM) for 20 min after which reduction in cell viability was determined. […] DNQX is an inhibitor of non-N-methyl-D-aspartate (NMDA) receptors, whilst magnesium inhibits the functioning of the inositol 1,4,5-trisphosphate (IP3)-mediated calcium signaling pathway at several points. The effects of mefloquine and WR069878 on neuronal calcium homeostasis were assessed utilizing confocal microscopy as per Dow et al, as discussed in Antimicrob Agents Chemother. (48)2624-2632 (2004), cited above, and incorporated by reference, herein. Briefly neurons were loaded with calcium sensitive dye Fluo 3-A for 1 h and were washed prior to image experiments. Neurons were ‘spiked’ with 100 μM mefloquine or WR069878. Subsequent changes in neuronal calcium homeostasis were recorded as fluctuations in the emitted fluorescence of fluo-3-complexed calcium at 530 nm (excitation was 488 nm). Sequential image scans of fields containing 5-25 neurons were used to construct temporal profiles. Scans were made at 10 s intervals. Fluorescence levels for each neuron were normalized 12 to time zero values. Data were then pooled from three and five independent experiments for mefloquine and WR069878 respectively.
# [6] = Description: The AAQMs indicated in Table 1 (10 μM) were added to a mixture containing an NADPH-regenerating buffer (1.25 mM β-NADP+, 3.3 mM glucose-6-phosphate, and 3.3 mM MgCl2) and 0.5 mg/ml pooled human liver microsomes to a final volume of 125 μl. The mixtures were incubated for 5 minutes at 37° C. and the reactions were initiated by adding 25 μl glucose-6-phosphate dehydrogenase to a final concentration of 1 unit/ml. The reactions were maintained at 37° C. until they were terminated by the addition of an equal volume of 100% ice cold acetonitrile at 0, 10, 30, 60, and 120 minutes. Samples were centrifuged to pellet the proteins and the supernatant was analyzed by LC-MS/MS in duplicate using fast LC gradient or isocratic methods. AAQM concentrations were quantified with external calibration, using plots of response v. amount. Chromatograms were analyzed using the mass spectrometry software Xcalibur® QuanBrowser (for ThermoFinnigan® instruments) or MassLynx® (for Waters® instruments). Concentrations of AAQMs remaining at each time point were calculated using the unknown peak areas and corresponding calibration curves. In order to calculate the half-life, a first-order rate of decay was assumed. […] All reagents were purchased from Sigma except for the microsomes, which were obtained from BD Gentest®. For metabolite identification, samples were prepared as described above with human liver microsomes. Additional samples were prepared with for each AAQM using mouse, rat, and rhesus monkey liver microsomes. Samples were separated using an LC gradient method and analyzed by full scan LC-MS and LC-MS/MS. […] These MS/MS data were also used to do preliminary structural elucidation. […] The relative percentage of formation of each metabolite was determined in a semi-quantitative manner since standards of each metabolite were not available. Peak areas of each detected AAQM metabolite and the internal standard were determined, and their ratios were calculated as metabolite area/internal standard area. The percent formation of each metabolite was determined as the area ratio divided by the sum of all the metabolite area ratios.
# [7] = system: neuronal calcium homeostasis; test: Neuronal calcium homeostasis, confocal microscopy (Fluo-3); conditions: 100 μM, FIG. 2(b)
# Description: (§2) The neurocytotoxicity assay of AAQMs was conducted as per Dow et al.; The antimalarial potential of 4-quinolinecarbinolamines may be limited due to neurotoxicity and cross-resistance in mefloquine-resistant Plasmodium falciparum strains; Chemother. (48) 2624-2632 (2004) and is incorporated herein, by reference. This assay utilizes primary rat forebrain neurons and is a multi-endpoint screen. […] The AAQMs outlined in Table 1 were screened at 10, 100 and 1000 μM in triplicate, and the reduction in viability observed was determined using the 3-(4,5-dimethylthiazol-2-yl)-2,5-diphenyltetrazolium bromide (MTT) assay as per Dow et al., discussed above. Approximate IC50 values were calculated on the basis of the level of inhibition observed at each concentration. […] IC50s were calculated using Prism. […] Neurons were exposed to DNQX (100 μM) or magnesium (12 mM) for 5 min, followed by mefloquine (25 μM) or WR069878 (250 μM) for 20 min after which reduction in cell viability was determined. […] The effects of mefloquine and WR069878 on neuronal calcium homeostasis were assessed utilizing confocal microscopy as per Dow et al, as discussed in Antimicrob Agents Chemother. […] Subsequent changes in neuronal calcium homeostasis were recorded as fluctuations in the emitted fluorescence of fluo-3-complexed calcium at 530 nm (excitation was 488 nm). […]
# [8] = system: primary rat forebrain neurons; test: Neuroprotection experiments with DNQX and magnesium; conditions: DNQX 100 μM or magnesium 12 mM; mefloquine 25 μM, WR069878 250 μM; FIG. 2(c)
# Description: as §2
# [9] = rats; cited from earlier work
# [10] = humans; cited from earlier work
# [11] = single mefloquine treatment dose; cited from earlier work
# [12] = biological target: human multiple drug resistance transporter (MDR1), P-glycoprotein (Homo sapiens, UniProt P08183); conditions: not told; cited from earlier work
# [13] = Phototoxicity in mice (historical experiments); conditions: WR030090: 25 or 50 mg/kg orally, WRAIR archival data
# [14] = system: Plasmodium falciparum malaria; conditions: P. falciparum malaria, South East Asia; WR030090: field trials; cited from earlier work
Structure (SMILES),Activity against P. falciparum TM91C235 (IC50 in ng/ml) [1],"IC50 ([1]; Table 4, read-out: Median IC50 against P. falciparum TM91C235)","Mean IC50 +/- SD against P. falciparum TM91C235 ([1]; control, last 15 assays)",IC90 against TM91C235 ([1]; text b26),IC90 against TM90C2A [2],IC90 against D6 [3],IC90 against W2 [4],"IC50 ([5]; read-out: Median IC50 against rat neurons, Table 4)","IC50 ([5]; read-out: Neurotoxicity IC50, full dose response, FIG. 2(a))","IC50 ([5]; read-out: Neurotoxicity ranking (IC50 in μM), approximate IC50 from screen at 10, 100 and 1000 μM, MTT)","Half-life, human liver microsomes [6]",Effect on intracellular calcium (Fluo-3 fluorescence) [7],Neurotoxicity blocked by DNQX and supra-physiological magnesium [8],Maximum concentration in CNS [9],Maximum concentration in CNS [10],Peak plasma concentrations [11],PgP interaction [12],Phototoxicity in mice [13],Cure rate [14]
"OC(c1cc(C(F)(F)F)nc2c(C(F)(F)F)cccc12)C1CCCCN1 (stereo not shown) [Mefloquine, reference compound]",15 ng/mL,0.035 µM,0.0157 ± 0.0027 µg/mL,0.089 µg/mL,0.101 µg/mL,0.02 µg/mL,0.0039 µg/mL,20 µM,27 µM,20 µM,> 2 h,increases intracellular calcium concentrations,is blocked,113 µM,52 µM,800 to 8000 ng/mL,PgP substrate and inhibitor,Not phototoxic at tolerated doses,–
C=C[C@H]1C[N@@]2CC[C@H]1C[C@H]2[C@H](O)c1ccnc2ccc(OC)cc12 [quinine],–,–,–,–,–,–,–,–,–,–,–,–,–,–,–,–,–,–,26-50%
